Measurements taken from article PMC7105882, “Plasmodium Perforin-Like Protein Pores on the Host Cell Membrane Contribute in Its Multistage Growth and Erythrocyte Senescence” (Frontiers in Cellular and Infection Microbiology, 2020).

Molecular target: T1, PfPLP2 (rPMD2, pan-MACPF domain of perforin-like protein 2) (Plasmodium falciparum, UniProt Q8I5P0)
T1 construct: gene PF3D7_1216700; rPMD2, recombinant His-tagged MACPF domain of PfPLP2
Test: inhibition of erythrocyte lysis by purified rPMD2; thermal protection of purified rPMD2 (modified CETSA)
Type: biochemical

T1 sequence (Q8I5P0 entry or part of it): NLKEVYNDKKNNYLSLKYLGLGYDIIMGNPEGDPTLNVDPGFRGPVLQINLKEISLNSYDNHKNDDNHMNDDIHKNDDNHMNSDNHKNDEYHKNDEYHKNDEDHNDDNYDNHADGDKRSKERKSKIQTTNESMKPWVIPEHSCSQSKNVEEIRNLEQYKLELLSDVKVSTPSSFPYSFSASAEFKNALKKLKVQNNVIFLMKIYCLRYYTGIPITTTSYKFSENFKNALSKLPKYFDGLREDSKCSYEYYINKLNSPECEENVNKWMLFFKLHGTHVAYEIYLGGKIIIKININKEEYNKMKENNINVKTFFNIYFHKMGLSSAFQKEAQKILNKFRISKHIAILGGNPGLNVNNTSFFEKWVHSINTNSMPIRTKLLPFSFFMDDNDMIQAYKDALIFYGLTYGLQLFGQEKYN

Cn1cc(/C=C2\NC(=S)NC2=O)c2ccccc21 [C01, (Z)-5-((1-methyl-1H-indol-3-yl)methylene)-2-thioxoimidazolidin-4-one]
inhibition of erythrocyte lysis by purified rPMD2; thermal protection of purifie: C01 and C02 could inhibit the activity of both rPMD1 and rPMD2 in the sub-micromolar range

O=C1NC(=S)N/C1=C\c1csc2ccccc12 [C02, (Z)-5-(benzo[b]thiophen-3-ylmethylene)-2-thioxoimidazolidin-4-one]
inhibition of erythrocyte lysis by purified rPMD2; thermal protection of purifie: C01 and C02 could inhibit the activity of both rPMD1 and rPMD2 in the sub-micromolar range
